In US8426369B2, “Prevention and treatment of colon cancer” (Rutgers, The State University of New Jersey, priority 2006, dated 2013):

How the values were obtained:
[1] = system: p27; test: Western blot of p27 in HT-29 cells; type: cell-based, human; conditions: HT-29, data not shown
Procedure: (§1) The cells were incubated with different concentrations of pterostilbene for 1, 2 and 3 days, and cell proliferation was estimated by measuring [^3H]thymidine incorporated into DNA. […] In order to evaluate whether pterostilbene potentiates cell cycle arrest or apoptosis in HT-29 cells, the effect of pterostilbene on the proteins regulating the cell cycle and/or apoptosis pathways was examined. Cells treated with pterostilbene for 9 h or 18 h were harvested and protein samples were analyzed by Western blotting (FIG. 8B).
(§2) The cell culture conditions and the reagents used in this example were described in Example 32. Whole cell extracts were collected after the various treatments and analyzed by western blotting. The protein samples were separated on 4-15% SDS-PAGE gels (Biorad, Hercules, Calif.) followed by transfer to a polyvinylidene fluoride membrane. The membranes were blocked with 5% milk in Tris buffer for 1 h and then incubated with the appropriate primary antibody solutions overnight at 4° C. The membranes were washed with Tris buffer, and incubated with horseradish peroxidase conjugated secondary antibody solutions for 1 h at room temperature.
(§3) The protein bands were visualized using a chemiluminescence based kit from Amersham Biosciences (Buckinghamshire, UK). […]

[2] = system: cyclin D1; test: Western blot of cyclin D1 in HT-29 cells; type: cell-based, human; conditions: 9 h or 18 h, especially at 9 h
Procedure: as §1, §2, §3

[3] = Body weight / overt toxicity during the ACF feeding study; type: in vivo; conditions: 40 ppm in diet
Procedure: Beginning at 5 weeks of age, all rats were fed the modified American Institute of Nutrition-76A (AIN-76A) diet. At 7 weeks of age, the animals were given s.c. injections of azoxymethane (AOM) (CAS no. 25843-45-2, Ash Stevens, Detroit, Mich.) once weekly for 2 weeks at a dose rate of 15 mg/kg body weight. One day after the second AOM injection, groups of animals (n=9 per group) were maintained on AIN-76A diet alone and AIN-76A diet containing 40 ppm pterostilbene. […] See, e.g., U.S. Application Publication No. US 2006-0057231 A1.
On the average, the animal consumed about 0.6 mg pterostilbene per day. All rats were weighed once weekly until termination of the study at 8 weeks after the second AOM treatment were sacrificed by CO2 asphyxiation. After laparotomy, the entire stomach, small intestine, and large intestine were resected. The organs were opened longitudinally, and the contents were flushed with normal saline.

[4] = system: proliferating cell nuclear antigen (PCNA); test: PCNA immunostaining and labeling index of colon sections; type: in vivo, male F344 rats; conditions: 40 ppm in diet, AOM-treated rats
Procedure: Total number of ACF/colon and multiple aberrant crypts/focus were counted and the data were analyzed by Student's t-test. The PCNA labeling index (PI) was calculated as the [(number of positive cells)/(total number of cells)]×100 for each field which is averaged to get the PI for each section. The significance of treatment between the groups was analyzed by Student's t-Test.
(§4) Animals were treated as described in Example 27. Colon samples from each group were harvested at autopsy and fixed in 10% formalin for 24 hr. They were sectioned into 8 to 10 segments, paraffin embedded, and microtomed into 4 μm thick tissue sections. The slides were incubated overnight at room temperature with antibody to proliferating cell nuclear antigen (PCNA) (1:1000 diluted, BD Pharmingen, San Diego, Calif.), iNOS (1:100 diluted, Santa Cruz Biotechnology, Santa Cruz, Calif.), or mucin MUC2 (1:250 diluted, Santa Cruz Biotechnology, Santa Cruz, Calif.).
The slides were incubated with the biotinylated secondary antibody, and then with avidin/biotinylated peroxidase complex for 30 min at room temperature (Vector Labs, Burlingame, Calif.), and were incubated with […] (DAB) substrate. The sections were then counter-stained with Modified Harris Hematoxylin. The images were taken randomly at 400× using Zeiss AxioCam HRc camera fitted to a Zeiss Axioskope 2 Plus microscope. […]

[5] = system: HT-29 cells; test: [3H]Thymidine incorporation cell proliferation assay in HT-29 cells; type: cell-based, human; conditions: Homo sapiens, HT-29, 30 μM at 3 days, read-out: inhibition of DNA synthesis
Procedure: The stilbenes illustrated in FIG. 4 were also used to investigate their ability to inhibit cell proliferation in HT-29 cell line. In this experiment, HT-29 cells (20,000 cells/well in 24-well plate) were treated with the respective stilbenes (each used either at 30 μM or 3 μM) in 10% FBS/DMEM for three days.
Human colon carcinoma cell lines HT-29 was obtained from the American Type Culture Collection (Manassas, Va.). The cells were maintained in Dulbecco's modification of Eagle's medium (DMEM) supplemented with 10% FBS and 1% penicillin/streptomycin at 37° C. and 5% CO2. The cytokine mixture, consisting of 10 ng/ml of TNF-α, IFN-γ and LPS, was used to induce iNOS and COX-2, unless otherwise mentioned. The cells were treated with the test compound either alone or in combination with cytokines for different time intervals and harvested for protein or RNA.
HT-29 cells were plated at a density of 20,000 cells/well in a 24 well plate and treated with varying concentrations of pterostilbene for a period of 1, 2 or 3 days at 37° C. Before harvest, the cells were incubated with 1 μCi [^3H]thymidine for 4 h at 37° C. and were washed with phosphate buffered saline. The cells were precipitated with cold 10% trichloroacetic acid for 10 min and solubilized with 0.5 ml solubilization buffer (0.2 M NaOH, 40 μg/ml salmon sperm DNA) for 2 h at room temperature. The lysate was transferred to 5 ml Ecolume and the [3H]thymidine incorporated into the DNA of HT-29 cells was determined using a scintillation spectrometer (Beckman Coulter, Fullerton, Calif.).

[6] = system: carcinogen-induced preneoplastic lesions; conditions: MMOC model; cited from earlier work
[7] = system: Elk-1; test: Western blot of cytokine-induced Elk-1 phosphorylation in HT-29 cells; type: cell-based, human; conditions: cytokine-treated HT-29
Procedure: as §2
The protein bands were visualized using a chemiluminescence based kit from Amersham Biosciences (Buckinghamshire, UK). The primary antibodies against iNOS, COX-2, IκBα, cyclin D1, c-myc (Santa Cruz Bio-technology, Santa Cruz, Calif.), phospho-STAT3, phospho-Erk1/2, phospho-JNK1/2, phospho-p38, phospho-Akt, phospho-ATF2, phospho-Elk1, PARP (Cell Signaling Technology Inc., Beverly, Mass.) and actin (Sigma, St. Louis, Mo.) and secondary antibodies (Santa Cruz Biotechnology, Santa Cruz, Calif.) were used for probing the abundance of the target protein in the samples. […]

[8] = rats; cited from earlier work
[9] = system: mucin MUC2; test: Mucin MUC2 immunostaining of colon sections; type: in vivo, male F344 rats; conditions: 40 ppm in diet, AOM-treated rats
Procedure: as §4
The slides were incubated with the biotinylated secondary antibody, and then with avidin/biotinylated peroxidase complex for 30 min at room temperature (Vector Labs, Burlingame, Calif.), and were incubated with […] (DAB) substrate. The sections were then counter-stained with Modified Harris Hematoxylin. The images were taken randomly at 400× using Zeiss AxioCam HRc camera fitted to a Zeiss Axioskope 2 Plus microscope. A positive reaction is noted by a reddish brown precipitate in the nucleus for PCNA, in the cytoplasm for iNOS or in the colon crypts for mucin MUC2.

**Q.** Which results are given for `COc1cc(/C=C/c2ccc(O)cc2)cc(OC)c1` [pterostilbene, (E)-4-(3,5-dimethoxystyryl)phenol]?
**A.** induction of p27 [1]: no induction; cyclin D1 level [2]: effective in reducing; overt toxicity [3]: did not cause any overt toxicity; body weights compared to control diet ([3]; throughout the study): comparable; PCNA positive cells (%) of colon tissue [4]: 44.2±2.9%; inhibition at 30 µM [5]: 71 ± 3%; preventing carcinogen-induced preneoplastic lesions [6]: as effective as resveratrol; cytokine-induced activation (phosphorylation) of Elk-1 [7]: effective in inhibiting; serum glucose [8]: lower serum glucose; mucin MUC2 staining of colon mucosa [9]: abundant secretion of mucin MUC2
